In one series the test system is Myzus persicae. The series can be described thus: Myzus persicae spray test (bell pepper plants). Format: in vivo. The note with it: 100 ppm, after 6 days. On the procedure:
• Solvent: 14 parts by weight of dimethylformamide • Emulsifier: alkylaryl polyglycol ether
To produce a suitable preparation of active compound, 1 part by weight of active compound is dissolved using the stated parts by weight of solvent and made up with water containing an emulsifier concentration of 1000 ppm until the desired concentration is attained. To produce further test concentrations, the preparation is diluted with emulsifier-containing water. If the addition of ammonium salts or/and penetrants is required, these are each added in a concentration of 1000 ppm to the formulation solution.
Bell pepper plants (Capsicum annuum) severely infested with the green peach aphid (Myzus persicae) are treated by spraying with the active compound preparation in the desired concentration.
After 6 days, the kill in % is determined. 100% means that all of the aphids have been killed; 0% means that none of the aphids have been killed.

The test system of a further series is Phaedon cochleariae. The experiment in a line: Phaedon cochleariae - spray test. Format: in vivo. To be noted: 500 g/ha, after 7 days, larvae on Chinese cabbage leaf discs.
The test system of another series is Spodoptera frugiperda. The series can be described thus: Spodoptera frugiperda - spray test. The class given is in vivo. The note with it: 500 g/ha, after 7 days, caterpillars on maize leaf discs.
Series [1] is described as follows: log P by HPLC on a reversed-phase column (C 18), EEC Directive 79/831 Annex V.A8. The class given is physicochemical. The note with it: 55° C.
A further series has as its system Lucilia cuprina. The experiment in a line: Lucilia cuprina test. The class given is in vivo. To be noted: 100 ppm, after 2 days, L1 larvae. On the procedure:
• Solvent: dimethyl sulphoxide To produce a suitable preparation of active compound, 10 mg of active compound are mixed with 0.5 ml of dimethyl sulphoxide, and the concentrate is diluted with water to the desired concentration. About 20 L1 larvae of the Australian sheep blowfly (Lucilia cuprina) are transferred into a test vessel containing minced horsemeat and the active compound preparation of the desired concentration. After 2 days, the kill in % is determined. 100% means that all the larvae have been killed; 0% means that no larvae have been killed.

Take `CCS(=O)(=O)c1c(-c2nc3cc(C(F)(F)F)ccc3n2C)nc2ccccn12` [Example I-10]: the “efficacy (kill)” value with Myzus persicae and in the series on Lucilia cuprina was 100% in each case. The efficacy in the series with Phaedon cochleariae and in the series on Spodoptera frugiperda was 100% in each case. This molecule also showed an LOGP_HCOOH in series [1] (acidic range, pH 2.7, 0.1% aqueous formic acid/acetonitrile) of 2.70. In series [1] (neutral range, pH 7.8, 0.001 molar aqueous ammonium hydrogencarbonate/acetonitrile), this molecule registered an LOGP_NEUTRAL of 2.64.

These data come from patent US10188108B2, “Fused bicyclic heterocycle derivatives as pesticides” (BAYER CROPSCIENCE AKTIENGESELLSCHAFT, priority 2015, dated 2019).
